Like-named read-outs stand apart in the source and are kept apart here.
What was measured:
[1] = target: T1, full-length beta-Catenin (Uniprot ID P35222) (Homo sapiens, UniProt P35222); test: Fluorescence polarization IC50 (beta-catenin / 5FAM-TCF4 10-53 competition); format: binding; conditions: fluorescence polarization; read-out: beta-Catenin FP IC50
T1 construct: 10 nM full-length beta-Catenin (Uniprot ID P35222)
T1 sequence (P35222 1-781): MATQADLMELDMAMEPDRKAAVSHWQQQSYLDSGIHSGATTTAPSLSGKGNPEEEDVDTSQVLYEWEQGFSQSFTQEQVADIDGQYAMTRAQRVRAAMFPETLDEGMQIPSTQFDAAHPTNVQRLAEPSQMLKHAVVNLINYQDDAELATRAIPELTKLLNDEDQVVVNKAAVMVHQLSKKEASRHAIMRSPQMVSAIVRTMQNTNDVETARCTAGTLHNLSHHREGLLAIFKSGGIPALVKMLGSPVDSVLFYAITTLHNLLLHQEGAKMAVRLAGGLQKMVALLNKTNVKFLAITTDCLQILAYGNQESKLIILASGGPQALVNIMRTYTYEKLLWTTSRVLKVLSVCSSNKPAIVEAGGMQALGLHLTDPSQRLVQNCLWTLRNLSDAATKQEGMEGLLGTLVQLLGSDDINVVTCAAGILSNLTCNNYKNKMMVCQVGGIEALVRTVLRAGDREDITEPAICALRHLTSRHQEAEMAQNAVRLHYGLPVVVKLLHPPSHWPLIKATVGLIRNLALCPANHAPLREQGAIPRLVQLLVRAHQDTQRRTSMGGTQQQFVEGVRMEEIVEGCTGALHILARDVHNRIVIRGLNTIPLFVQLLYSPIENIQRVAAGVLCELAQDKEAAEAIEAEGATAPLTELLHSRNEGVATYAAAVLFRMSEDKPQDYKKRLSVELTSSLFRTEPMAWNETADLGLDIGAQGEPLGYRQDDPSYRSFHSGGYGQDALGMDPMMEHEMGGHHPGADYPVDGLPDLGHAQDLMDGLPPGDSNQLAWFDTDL

[2] = tested on: TCF/LEF luciferase Reporter in DLD1 cells; test: TCF reporter assay (DLD1 TCF/LEF luciferase reporter, Bright-Glo); format: cell-based; conditions: read-out: DLD1 4% Abs IC50
Outline: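 Readouts: Bright-Glo luciferase for reporter signal and CellTiter-Glo for cell viability, with absolute IC50 derived. The reporter clone came from lentiviral TCF/LEF-luciferase transduction of DLD1 cells, seeded 5000 cells/well in RPMI with 4% FBS and exposed overnight to serially diluted compounds.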

[3] = target: T2, beta-catenin/TCF4 engagement (Homo sapiens, UniProt P35222); test: Nano-BRET target engagement assay (B-cat-Halo & TCF4-Luc in HEK293 cells); format: cell-based
T2 construct: expressed in transfected cells; host or cells: HEK293
T2 sequence (P35222 1-781): T1 sequence (P35222 1-781)

COLO320DM cells = format: cell-based; conditions: COLO320DM cells, read-out: COLO320DM Proliferation Abs IC50
Protocol: COLO320DM proliferation assay IC50: In some embodiments, inhibition of cell proliferation by provided technologies were assessed using cell lines related to or from certain conditions, disorders or diseases. In some embodiments, cell proliferation was assessed in COLO320DM cells. In some embodiments, assessment was performed using the following procedure: On Day 1, cultured COLO320DM cells in a T75 flask were trypsinized in 3 mL of 0.25% trypsin/EDTA for 5 min and quenched with 10 mL RPMI-1640+4% HI FBS assay media. The cells were spun down at 1200 rpm for 5 min, the cell pellet collected and re-suspended at 5000 cells/mL in assay media. Using a Combi liquid handler, cells were dispensed (50 uL, 250 cells/well) into three 384 well plates. Plates were incubated at 37° C., […]. On day 2, compounds were added. A liquid handling system was used to prepare the compound dilution and dispense compound into assay plates. The compounds were serially diluted 1/2 in 90% DMSO to create a 7 point dose curve. From compound plate, 100 nL of compound were dispensed directly into wells of the assay plates to create a dose curve starting at 20 uM and ending at 313 nM. Assay plates were incubated at 37° C., […]. On day 6, assay plates were removed from the incubator and allowed to sit at room temperature for 30 min. Using a liquid handler, 20 uL of CellTiter Glo reagent was added to each well. The assay plates were shaken for 2 min and allowed to sit on the bench for 10-15 minutes. The assay plates were read using the CellTiter Glo protocol on a GloMax microplate reader, and the data analyzed using GraphPad Prism.

[4] = DLD1 reporter, 4%, absolute IC50
[5] = absolute IC50, read-out: NanoBRET Abs IC50

How did the IC50 [1] turn out when `CC(=O)NCCCC[C@@H]1NC(=O)[C@H](Cc2ccccc2)NC(=O)[C@H](C)NC(=O)C(C)(C)NC(=O)[C@H](Cc2cccc(C(=O)O)c2)NC(=O)[C@H](CC(=O)O)NC(=O)C2(CCCC=CCCCOC(=O)N3CC[C@@](C(=O)N[C@@H](Cc4ccsc4)C(=O)N[C@@H](Cc4csc5ccccc45)C(=O)N[C@@H](C)C(=O)N[C@@H](C)C(N)=O)(C3)NC1=O)CCCC=CC[C@]1(CCCN1C(C)=O)C(=O)N[C@@H](CC(=O)O)C(=O)N[C@@H](CC(C)(C)C)C(=O)N2` (stereo partly drawn) [I-2578, Ac-PL3-Asp-Npg-B5-Asp-3COOHF-Aib-Ala-Phe-AcLys-PyrS2-3Thi-BztA-Ala-Ala-NH2] was run?
Its IC50 is 5 nM.

And the IC50 ([2]; DLD1 reporter, 4%)?
The IC50 was 4100 nM.

And the IC50 ([3]; read-out: NanoBRET Abs IC50)?
Its IC50 is 5.5 µM.

What about the IC50 (COLO320DM cells) of the same molecule?
Its IC50 is 7700 nM.

For `CC(=O)N1CCC[C@]12CC=CCCCC1(CCCC=CCCCOC(=O)N3CC[C@@](C(=O)N[C@@H](Cc4ccccc4C(F)(F)F)C(=O)N[C@@H](Cc4csc5ccccc45)C(=O)N[C@@H](CCC(N)=O)C(=O)N[C@@H](CC(C)C)C(=O)N[C@@H](Cc4c[nH]c5ccccc45)C(N)=O)(C3)NC(=O)[C@H](CC(C)C)NC(=O)[C@H](Cc3ccccc3)NC(=O)[C@H](C)NC(=O)[C@H](C)NC(=O)[C@H](Cc3cccc(C(=O)O)c3)NC(=O)[C@H](CC(=O)O)NC1=O)NC(=O)[C@H](CC(C)(C)C)NC(=O)[C@H](CC(=O)O)NC2=O` (stereo partly drawn) [I-2394, Ac-PL3-Asp-Npg-B5-Asp-3COOHF-Ala-Ala-Phe-Leu-PyrS2-2F3MeF-BztA-Gln-Leu-Trp-NH2], which IC50 [1] is on record?
The IC50 was 535 nM.

And the IC50 [2, 4]?
Its IC50 is 700 nM.

What about the IC50 [3, 5] of the same molecule?
The IC50 was 2.2 µM.

And the IC50 (COLO320DM cells; absolute IC50)?
The IC50 was greater than 20000 nM.

Which results are given for `CC(=O)N1CCC[C@]12CC=CCCCC1(CCCC=CCCCOC(=O)N3CC[C@@](C(=O)N[C@@H](Cc4ccccc4C(F)(F)F)C(=O)N[C@@H](Cc4csc5ccccc45)C(=O)N[C@@H](CO)C(N)=O)(C3)NC(=O)[C@H](CC(C)C)NC(=O)[C@H](Cc3ccccc3)NC(=O)[C@H](C)NC(=O)[C@H](C)NC(=O)[C@H](Cn3cc(CC(C)(C)C(=O)O)nn3)NC(=O)[C@H](CC(=O)O)NC1=O)NC(=O)[C@H](CC(C)(C)C)NC(=O)[C@H](CC(=O)O)NC2=O` (stereo partly drawn) [I-2372, Ac-PL3-Asp-Npg-B5-Asp-[CH2CMe2CO2H]TriAzDap-Ala-Ala-Phe-Leu-PyrS2-2F3MeF-BztA-Ser-NH2]?
IC50 [1]: 5 nM; IC50 [2, 4]: 2100 nM; IC50 [3, 5]: 2.6 µM; IC50 (COLO320DM cells; absolute IC50): 7000 nM

What does the source list for `CC(=O)N1CCC[C@]12CC=CCCCC1(CCCC=CCCCOC(=O)N3CC[C@@](C(=O)N[C@@H](Cc4ccsc4)C(=O)N[C@@H](Cc4csc5ccccc45)C(=O)N[C@@H](CCC(N)=O)C(N)=O)(C3)NC(=O)[C@H](CC(C)C)NC(=O)[C@H](Cc3ccccc3)NC(=O)[C@H](C)NC(=O)[C@H](C)NC(=O)[C@H](Cc3cccc(C(=O)O)c3)NC(=O)[C@H](CC(=O)O)NC1=O)NC(=O)[C@H](CC(C)(C)C)NC(=O)[C@H](CC(=O)O)NC2=O` (stereo partly drawn) [I-1462, Ac-PL3-Asp-Npg-B5-Asp-3COOHF-Ala-Ala-Phe-Leu-PyrS2-3Thi-BztA-Gln-NH2]?
IC50 [1]: 8 nM; IC50 [2, 4]: 2700 nM; IC50 [3, 5]: 2.3 µM; IC50 (COLO320DM cells; absolute IC50): 8400 nM

Which results are given for `CC(=O)N1CCC[C@]12CC=CCCCC1(CCCC=CCCCOC(=O)N3CC[C@@](C(=O)N[C@@H](Cc4ccccc4C(F)(F)F)C(=O)N[C@@H](Cc4csc5ccccc45)C(=O)N[C@@H](CCC(N)=O)C(=O)N[C@@H](CC(C)C)C(=O)N[C@@H](Cc4ccccc4)C(N)=O)(C3)NC(=O)[C@H](CC(C)C)NC(=O)[C@H](Cc3ccccc3)NC(=O)[C@H](C)NC(=O)[C@H](C)NC(=O)[C@H](Cc3cccc(C(=O)O)c3)NC(=O)[C@H](CC(=O)O)NC1=O)NC(=O)[C@H](CC(C)(C)C)NC(=O)[C@H](CC(=O)O)NC2=O` (stereo partly drawn) [I-2381, Ac-PL3-Asp-Npg-B5-Asp-3COOHF-Ala-Ala-Phe-Leu-PyrS2-2F3MeF-BztA-Gln-Leu-Phe-NH2]?
IC50 [1]: 1470 nM; IC50 [2, 4]: 1100 nM; IC50 [3, 5]: 2.1 µM; IC50 (COLO320DM cells; absolute IC50): > 20000 nM

With `CC(=O)N1CCC[C@]12CC=CCCCC1(CCCC=CCCCOC(=O)N3CC[C@@](C(=O)N[C@@H](Cc4ccccc4Cl)C(=O)N[C@@H](Cc4csc5ccccc45)C(=O)N[C@@H](CC(N)=O)C(=O)N[C@@H](C)C(=O)N[C@@H](C)C(=O)N[C@H](C)C(N)=O)(C3)NC(=O)[C@H](CC(C)C)NC(=O)[C@H](Cc3ccccc3)NC(=O)[C@H](C)NC(=O)[C@H](C)NC(=O)[C@H](Cc3cccc(C(=O)O)c3)NC(=O)[C@H](CC(=O)O)NC1=O)NC(=O)[C@H](CC(C)(C)C)NC(=O)[C@H](CC(=O)O)NC2=O` (stereo partly drawn) [I-2041, Ac-PL3-Asp-Npg-B5-Asp-3COOHF-Ala-Ala-Phe-Leu-PyrS2-2C1F-BztA-Asn-Ala-Ala-dAla-NH2] as the molecule, how does the IC50 [1] read?
The IC50 was 16 nM.

What about the IC50 ([2]; DLD1 4%) of the same molecule?
Its IC50 is 1900 nM.

And the IC50 ([3]; read-out: NanoBRET Abs IC50)?
The IC50 was 2.3 µM.

And the IC50 (COLO320DM cells)?
The IC50 was greater than 20000 nM.

With `CC(=O)N1CCC[C@]12CC=CCCCC1(CCCC=CCCCOC(=O)N3CC[C@@](C(=O)N[C@@H](Cc4ccccc4C(F)(F)F)C(=O)N[C@@H](Cc4csc5ccccc45)C(=O)N[C@@H](C)C(N)=O)(C3)NC(=O)[C@H](CC(C)C)NC(=O)[C@H](Cc3ccccc3)NC(=O)[C@H](C)NC(=O)[C@H](CCC(N)=O)NC(=O)[C@H](Cc3cccc(C(=O)O)c3)NC(=O)[C@H](CC(=O)O)NC1=O)NC(=O)[C@H](CC(C)(C)C)NC(=O)[C@H](CC(=O)O)NC2=O` (stereo partly drawn) [I-2057, Ac-PL3-Asp-Npg-B5-Asp-3COOHF-Gln-Ala-Phe-Leu-PyrS2-2F3MeF-BztA-Ala-NH2] as the molecule, how does the IC50 [1] read?
The IC50 was 17 nM.

What about the IC50 ([2]; DLD1 4%) of the same molecule?
Its IC50 is 4000 nM.

And the IC50 (COLO320DM cells)?
Its IC50 is greater than 20000 nM.

What does the source list for `CC(=O)N1CCC[C@]12CC=CCCCC1(CCCC=CCCCOC(=O)N3CC[C@@](C(=O)N[C@@H](Cc4ccsc4)C(=O)N[C@@H](Cc4csc5ccccc45)C(=O)N[C@@H](CC(N)=O)C(=O)N[C@@H](CC(C)C)C(=O)N[C@@H](CC(C)C)C(=O)N[C@@H](CC(C)C)C(=O)N[C@@H](CC(C)C)C(=O)N[C@@H](CC(C)C)C(N)=O)(C3)NC(=O)[C@H](CC(C)C)NC(=O)[C@H](Cc3ccccc3)NC(=O)[C@H](C)NC(=O)[C@H](C)NC(=O)[C@H](Cc3cccc(C(=O)O)c3)NC(=O)[C@H](CC(=O)O)NC1=O)NC(=O)[C@H](CC(C)(C)C)NC(=O)[C@H](CC(=O)O)NC2=O` (single isomer, unassigned) [I-2280, Ac-PL3-Asp-Npg-B5-Asp-3COOHF-Ala-Ala-Phe-Leu-PyrS2-3Thi-BztA-Asn-Leu-Leu-Leu-Leu-Leu-NH2]?
IC50 [2, 4]: > 20000 nM; IC50 ([3]; NanoBRET Abs IC50 (uM), absolute IC50): > 20 µM; IC50 (COLO320DM cells; absolute IC50): > 20000 nM

Which IC50 [1] does the source give for `CC(=O)N1CCC[C@]12CC=CCCCC1(CCCC=CCCCOC(=O)N3CC[C@@](C(=O)N[C@@H](Cc4ccccc4C(F)(F)F)C(=O)N[C@@H](Cc4csc5ccccc45)C(=O)N[C@@H](C)C(N)=O)(C3)NC(=O)[C@H](CC(C)C)NC(=O)[C@H](Cc3ccccc3)NC(=O)[C@H](C)NC(=O)[C@H](CCC(=O)N3Cc4ccccc4C3)NC(=O)[C@H](Cc3cccc(C(=O)O)c3)NC(=O)[C@H](CC(=O)O)NC1=O)NC(=O)[C@H](CC(C)(C)C)NC(=O)[C@H](CC(=O)O)NC2=O` (stereo partly drawn) [I-2320, Ac-PL3-Asp-Npg-B5-Asp-3COOHF-[isoindoline]GlnR-Ala-Phe-Leu-PyrS2-2F3MeF-BztA-Ala-NH2] here?
Its IC50 is 29 nM.

What about the IC50 [3, 5] of the same molecule?
The IC50 was 2.7 µM.

What about the IC50 (COLO320DM cells; absolute IC50) of the same molecule?
Its IC50 is greater than 20000 nM.

Reference: patent US20240116985A1, “STAPLED PEPTIDES AND METHODS THEREOF” (priority 2020, published 2024)
